Drawing on the NIST ThermoML archive (doi:10.1021/je060260h), this text covers refractive index for two compounds.

The nature of this data set: refractive index (Na D-line) (dimensionless). The settings on record: 298.15 K; 101.33 kPa; Liquid; Standard Abbe refractometry.

Molecules are shown by their SMILES. Numbers after ± are expanded uncertainties.

For the compound `CCCCn1cc[n+](C)c1.F[P-](F)(F)(F)(F)F` [1-butyl-3-methylimidazolium hexafluorophosphate], the refractive index (commonly a measure of how strongly the sample bends light) was 1.40925 ± 0.00037.
Turning to `CCCCO` [butan-1-ol], the refractive index was found to be 1.39686 ± 0.00033.
